From ChEMBL document CHEMBL3991601, “The target landscape of clinical kinase drugs” (Science, 2017) come the findings set out here.

Experiment [1] has as its target S-adenosylmethionine synthase isoform type-2 (Homo sapiens, UniProt P31153).
Experiment [2] has as its target Protein-tyrosine kinase 2-beta (Homo sapiens, UniProt Q14289).
The target in experiment [3] is T1, STE20-related kinase adapter protein alpha (Homo sapiens, UniProt Q7RTN6).
T1 sequence (Q7RTN6 whole entry): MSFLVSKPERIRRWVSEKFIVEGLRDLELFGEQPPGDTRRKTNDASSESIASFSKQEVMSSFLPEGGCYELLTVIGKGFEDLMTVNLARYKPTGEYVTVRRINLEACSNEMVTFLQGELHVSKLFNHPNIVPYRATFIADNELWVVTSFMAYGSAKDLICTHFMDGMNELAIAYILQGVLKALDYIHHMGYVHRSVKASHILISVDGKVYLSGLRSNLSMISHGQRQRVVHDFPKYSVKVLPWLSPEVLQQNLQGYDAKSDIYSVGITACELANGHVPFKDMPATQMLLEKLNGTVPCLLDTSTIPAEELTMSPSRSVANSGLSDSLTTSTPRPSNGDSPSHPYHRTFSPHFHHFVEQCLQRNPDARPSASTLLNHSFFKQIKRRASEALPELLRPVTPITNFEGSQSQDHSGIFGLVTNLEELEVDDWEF

The target in experiment [4] is T2, Serine/threonine-protein kinase TAO2 (Homo sapiens, UniProt Q9UL54).
T2 sequence (Q9UL54 whole entry): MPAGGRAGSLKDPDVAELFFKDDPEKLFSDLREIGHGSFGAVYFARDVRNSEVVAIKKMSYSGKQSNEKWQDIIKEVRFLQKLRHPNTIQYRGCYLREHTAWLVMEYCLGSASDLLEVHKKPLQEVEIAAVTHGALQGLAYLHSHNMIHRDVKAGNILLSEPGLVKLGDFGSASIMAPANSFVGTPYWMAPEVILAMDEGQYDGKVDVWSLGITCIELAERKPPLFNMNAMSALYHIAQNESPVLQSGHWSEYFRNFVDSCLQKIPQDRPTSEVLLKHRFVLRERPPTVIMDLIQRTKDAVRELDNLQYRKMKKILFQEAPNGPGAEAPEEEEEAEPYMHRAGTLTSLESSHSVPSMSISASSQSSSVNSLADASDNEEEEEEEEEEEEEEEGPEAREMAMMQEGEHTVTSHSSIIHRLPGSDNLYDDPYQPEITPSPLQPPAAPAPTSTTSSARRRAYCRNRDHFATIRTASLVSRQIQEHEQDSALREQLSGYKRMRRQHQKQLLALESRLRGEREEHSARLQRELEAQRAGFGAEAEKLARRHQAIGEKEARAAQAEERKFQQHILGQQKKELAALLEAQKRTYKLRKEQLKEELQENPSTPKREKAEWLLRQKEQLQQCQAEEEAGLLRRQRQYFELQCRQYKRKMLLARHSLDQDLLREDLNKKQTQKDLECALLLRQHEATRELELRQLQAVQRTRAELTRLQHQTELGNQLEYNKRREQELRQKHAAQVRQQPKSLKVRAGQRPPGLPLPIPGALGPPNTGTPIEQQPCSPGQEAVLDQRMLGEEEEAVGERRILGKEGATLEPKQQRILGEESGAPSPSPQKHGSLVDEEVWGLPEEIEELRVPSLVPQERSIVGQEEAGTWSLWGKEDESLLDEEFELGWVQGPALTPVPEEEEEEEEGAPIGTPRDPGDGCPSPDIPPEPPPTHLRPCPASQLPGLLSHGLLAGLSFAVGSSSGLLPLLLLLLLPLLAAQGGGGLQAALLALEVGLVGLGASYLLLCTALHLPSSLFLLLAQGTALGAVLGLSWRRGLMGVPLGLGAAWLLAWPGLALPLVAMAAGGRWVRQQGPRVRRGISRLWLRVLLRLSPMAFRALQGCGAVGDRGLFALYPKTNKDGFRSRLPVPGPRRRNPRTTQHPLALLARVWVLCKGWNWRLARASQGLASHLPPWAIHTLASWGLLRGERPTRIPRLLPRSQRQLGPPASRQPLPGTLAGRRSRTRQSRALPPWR

In experiment [5] the target is Bone morphogenetic protein receptor type-1A (Homo sapiens, UniProt P36894).
Sequence of Bone morphogenetic protein receptor type-1A (P36894 whole entry, canonical isoform): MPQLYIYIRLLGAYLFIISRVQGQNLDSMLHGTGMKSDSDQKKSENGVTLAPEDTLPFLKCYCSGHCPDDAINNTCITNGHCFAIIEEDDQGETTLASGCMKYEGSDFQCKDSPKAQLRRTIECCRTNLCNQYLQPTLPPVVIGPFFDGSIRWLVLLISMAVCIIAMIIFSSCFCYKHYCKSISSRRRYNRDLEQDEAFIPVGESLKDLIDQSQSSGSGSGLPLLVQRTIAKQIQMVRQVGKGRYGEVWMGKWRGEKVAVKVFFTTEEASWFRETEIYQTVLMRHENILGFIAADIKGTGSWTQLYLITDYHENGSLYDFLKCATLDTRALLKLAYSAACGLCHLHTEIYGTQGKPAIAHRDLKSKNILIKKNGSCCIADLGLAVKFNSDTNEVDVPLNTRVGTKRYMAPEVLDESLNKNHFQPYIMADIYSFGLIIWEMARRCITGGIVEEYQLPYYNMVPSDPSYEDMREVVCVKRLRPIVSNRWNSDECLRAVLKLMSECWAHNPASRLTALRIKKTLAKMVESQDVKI
For experiment [6], the target named is Casein kinase I isoform alpha (Homo sapiens, UniProt P48729).
The target in experiment [7] is Tyrosine-protein kinase Fyn (Homo sapiens, UniProt P06241).
Sequence of Tyrosine-protein kinase Fyn (P06241 whole entry): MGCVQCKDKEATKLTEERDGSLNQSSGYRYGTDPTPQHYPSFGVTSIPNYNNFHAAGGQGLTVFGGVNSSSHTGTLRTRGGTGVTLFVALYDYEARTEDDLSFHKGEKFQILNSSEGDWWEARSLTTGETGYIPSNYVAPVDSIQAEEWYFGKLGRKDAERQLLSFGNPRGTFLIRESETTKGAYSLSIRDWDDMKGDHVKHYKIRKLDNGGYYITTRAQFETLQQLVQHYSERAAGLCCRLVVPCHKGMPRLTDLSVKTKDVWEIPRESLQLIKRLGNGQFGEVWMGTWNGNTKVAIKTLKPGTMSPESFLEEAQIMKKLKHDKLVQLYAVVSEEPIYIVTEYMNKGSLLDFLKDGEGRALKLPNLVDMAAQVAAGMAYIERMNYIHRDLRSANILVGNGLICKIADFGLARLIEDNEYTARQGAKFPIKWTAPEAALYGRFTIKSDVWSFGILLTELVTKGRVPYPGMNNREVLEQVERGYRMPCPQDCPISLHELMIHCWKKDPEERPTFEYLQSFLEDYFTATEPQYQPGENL
Experiment [8] deals with Tyrosine-protein kinase FRK (Homo sapiens, UniProt P42685).
Sequence of Tyrosine-protein kinase FRK (P42685 whole entry): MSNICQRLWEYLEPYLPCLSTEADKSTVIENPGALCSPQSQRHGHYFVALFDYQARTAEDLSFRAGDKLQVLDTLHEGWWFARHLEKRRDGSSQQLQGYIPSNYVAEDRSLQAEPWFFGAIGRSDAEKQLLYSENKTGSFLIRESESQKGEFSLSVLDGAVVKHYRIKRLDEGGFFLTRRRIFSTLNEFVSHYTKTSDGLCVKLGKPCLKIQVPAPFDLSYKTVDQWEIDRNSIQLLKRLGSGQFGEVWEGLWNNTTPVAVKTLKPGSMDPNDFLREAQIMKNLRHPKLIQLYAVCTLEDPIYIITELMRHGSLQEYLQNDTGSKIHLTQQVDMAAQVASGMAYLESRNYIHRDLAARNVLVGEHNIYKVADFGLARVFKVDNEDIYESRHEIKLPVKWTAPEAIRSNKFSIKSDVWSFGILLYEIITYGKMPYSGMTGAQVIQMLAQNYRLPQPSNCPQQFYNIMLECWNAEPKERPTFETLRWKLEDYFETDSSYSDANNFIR
For experiment [9], the target named is Putative heat shock protein HSP 90-beta 2 (Homo sapiens, UniProt Q58FF8).
Experiment [10] deals with STE20-like serine/threonine-protein kinase (Homo sapiens, UniProt Q9H2G2).
Sequence of STE20-like serine/threonine-protein kinase (Q9H2G2 whole entry): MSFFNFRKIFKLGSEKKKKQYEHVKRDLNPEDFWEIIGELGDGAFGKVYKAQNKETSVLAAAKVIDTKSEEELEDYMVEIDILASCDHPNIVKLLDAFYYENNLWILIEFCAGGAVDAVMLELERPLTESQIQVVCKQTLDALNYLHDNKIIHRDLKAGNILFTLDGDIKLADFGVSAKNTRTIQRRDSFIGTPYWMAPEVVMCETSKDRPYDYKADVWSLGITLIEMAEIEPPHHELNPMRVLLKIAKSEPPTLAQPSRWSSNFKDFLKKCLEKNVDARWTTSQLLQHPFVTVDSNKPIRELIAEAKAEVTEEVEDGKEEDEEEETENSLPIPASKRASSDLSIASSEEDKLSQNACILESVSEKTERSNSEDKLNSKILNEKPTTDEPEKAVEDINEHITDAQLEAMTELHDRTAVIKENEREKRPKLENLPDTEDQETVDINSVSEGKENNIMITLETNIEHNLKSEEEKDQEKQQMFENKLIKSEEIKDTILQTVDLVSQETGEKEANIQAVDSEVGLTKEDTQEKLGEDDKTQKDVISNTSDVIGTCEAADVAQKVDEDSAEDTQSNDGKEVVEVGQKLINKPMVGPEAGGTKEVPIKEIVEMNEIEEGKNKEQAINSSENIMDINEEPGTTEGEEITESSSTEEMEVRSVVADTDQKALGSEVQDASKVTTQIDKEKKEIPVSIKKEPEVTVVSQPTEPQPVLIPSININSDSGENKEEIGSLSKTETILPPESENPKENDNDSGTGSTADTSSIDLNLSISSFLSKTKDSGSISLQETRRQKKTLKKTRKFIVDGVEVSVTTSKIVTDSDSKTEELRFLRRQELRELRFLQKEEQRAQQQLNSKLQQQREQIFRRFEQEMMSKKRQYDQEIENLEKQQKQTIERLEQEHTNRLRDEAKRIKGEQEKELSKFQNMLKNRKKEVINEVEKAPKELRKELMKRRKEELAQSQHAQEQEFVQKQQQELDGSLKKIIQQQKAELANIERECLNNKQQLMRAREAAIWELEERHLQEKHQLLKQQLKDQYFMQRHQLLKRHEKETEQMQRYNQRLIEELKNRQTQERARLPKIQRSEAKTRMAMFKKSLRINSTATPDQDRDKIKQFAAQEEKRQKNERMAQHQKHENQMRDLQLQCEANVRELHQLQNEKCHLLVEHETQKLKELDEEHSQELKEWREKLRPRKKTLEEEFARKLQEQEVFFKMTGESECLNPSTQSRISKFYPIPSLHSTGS
Experiment [11] addresses T3, EKC/KEOPS complex subunit TP53RK (Homo sapiens, UniProt Q96S44).
T3 sequence (Q96S44 whole entry): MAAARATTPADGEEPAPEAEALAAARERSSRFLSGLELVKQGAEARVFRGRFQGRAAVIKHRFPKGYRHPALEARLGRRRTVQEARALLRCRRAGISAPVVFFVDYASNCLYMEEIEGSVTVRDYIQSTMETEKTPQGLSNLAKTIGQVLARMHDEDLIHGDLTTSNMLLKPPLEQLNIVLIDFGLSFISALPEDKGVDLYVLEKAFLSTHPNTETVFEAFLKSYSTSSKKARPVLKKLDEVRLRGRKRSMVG

In experiment [12] the target is Ribosomal protein S6 kinase alpha-5 (Homo sapiens, UniProt O75582).
Sequence of Ribosomal protein S6 kinase alpha-5 (O75582 whole entry): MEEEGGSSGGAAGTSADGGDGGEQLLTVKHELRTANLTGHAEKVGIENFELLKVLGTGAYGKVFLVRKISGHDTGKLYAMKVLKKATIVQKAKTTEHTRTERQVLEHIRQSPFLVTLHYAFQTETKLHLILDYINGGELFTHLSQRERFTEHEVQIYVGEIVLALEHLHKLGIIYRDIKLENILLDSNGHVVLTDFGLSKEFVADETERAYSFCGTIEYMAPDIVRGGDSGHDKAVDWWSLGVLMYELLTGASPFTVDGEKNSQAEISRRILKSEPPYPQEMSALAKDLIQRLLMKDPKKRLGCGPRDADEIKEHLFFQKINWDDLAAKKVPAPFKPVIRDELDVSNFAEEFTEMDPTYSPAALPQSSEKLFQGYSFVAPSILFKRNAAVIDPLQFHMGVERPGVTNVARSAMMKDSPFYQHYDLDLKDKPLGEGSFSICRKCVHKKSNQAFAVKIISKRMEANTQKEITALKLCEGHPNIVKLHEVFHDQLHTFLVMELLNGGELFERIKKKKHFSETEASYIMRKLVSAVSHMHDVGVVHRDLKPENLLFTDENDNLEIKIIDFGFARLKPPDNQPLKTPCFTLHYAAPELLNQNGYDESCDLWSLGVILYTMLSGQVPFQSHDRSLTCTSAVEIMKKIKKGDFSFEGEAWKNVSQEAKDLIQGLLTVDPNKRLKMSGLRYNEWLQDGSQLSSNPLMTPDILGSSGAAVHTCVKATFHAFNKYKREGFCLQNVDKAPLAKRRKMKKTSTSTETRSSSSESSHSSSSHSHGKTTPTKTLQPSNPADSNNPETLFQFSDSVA

The source made the active and inactive calls. Cut-off read from the data, not from the text of the source, for most assays here: actives have a measured Kd and inactives only a lower limit.
Note: in the data inactive means no Kd found up to 30 µM.

Sequence of Protein-tyrosine kinase 2-beta (Q14289 whole entry): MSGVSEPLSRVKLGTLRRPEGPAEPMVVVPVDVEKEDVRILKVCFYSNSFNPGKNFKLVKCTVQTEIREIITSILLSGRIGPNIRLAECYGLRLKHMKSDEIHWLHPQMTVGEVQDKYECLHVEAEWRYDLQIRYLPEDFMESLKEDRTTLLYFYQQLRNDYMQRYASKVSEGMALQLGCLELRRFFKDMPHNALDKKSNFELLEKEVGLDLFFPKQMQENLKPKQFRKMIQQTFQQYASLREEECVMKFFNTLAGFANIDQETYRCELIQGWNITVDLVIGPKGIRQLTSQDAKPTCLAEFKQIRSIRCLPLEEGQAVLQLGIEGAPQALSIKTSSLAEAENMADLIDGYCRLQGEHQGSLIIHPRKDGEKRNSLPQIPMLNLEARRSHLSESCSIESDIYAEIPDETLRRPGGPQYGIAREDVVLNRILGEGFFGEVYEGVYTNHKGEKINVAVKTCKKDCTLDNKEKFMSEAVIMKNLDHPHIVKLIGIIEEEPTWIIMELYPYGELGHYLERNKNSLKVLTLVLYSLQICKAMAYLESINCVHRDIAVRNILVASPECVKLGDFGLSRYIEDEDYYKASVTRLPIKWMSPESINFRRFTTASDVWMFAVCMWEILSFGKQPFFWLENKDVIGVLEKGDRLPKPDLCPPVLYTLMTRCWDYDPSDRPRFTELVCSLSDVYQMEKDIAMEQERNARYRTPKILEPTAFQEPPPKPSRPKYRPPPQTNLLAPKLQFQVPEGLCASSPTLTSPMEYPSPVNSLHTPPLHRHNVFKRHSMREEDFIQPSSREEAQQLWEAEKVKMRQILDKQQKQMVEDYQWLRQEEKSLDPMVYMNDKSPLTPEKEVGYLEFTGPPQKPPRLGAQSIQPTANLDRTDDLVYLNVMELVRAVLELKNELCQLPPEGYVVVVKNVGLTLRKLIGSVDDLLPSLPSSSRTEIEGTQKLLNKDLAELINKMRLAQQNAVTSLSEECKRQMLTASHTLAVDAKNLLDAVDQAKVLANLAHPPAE
Sequence of S-adenosylmethionine synthase isoform type-2 (P31153 whole entry, canonical isoform): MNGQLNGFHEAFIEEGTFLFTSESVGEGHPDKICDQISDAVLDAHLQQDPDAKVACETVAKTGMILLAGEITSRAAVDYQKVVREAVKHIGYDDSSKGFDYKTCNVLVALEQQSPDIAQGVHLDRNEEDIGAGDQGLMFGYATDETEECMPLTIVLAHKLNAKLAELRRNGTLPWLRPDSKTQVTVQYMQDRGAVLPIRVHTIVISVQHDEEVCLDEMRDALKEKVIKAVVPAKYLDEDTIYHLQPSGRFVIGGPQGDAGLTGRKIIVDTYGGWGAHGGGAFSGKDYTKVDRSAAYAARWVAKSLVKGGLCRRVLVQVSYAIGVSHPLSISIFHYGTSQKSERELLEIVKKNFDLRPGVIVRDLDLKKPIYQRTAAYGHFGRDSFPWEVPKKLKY

For orientation: Kd means the constant that tells how readily two partners part at equilibrium. With `C[C@@H]1CN(Cc2ccc(F)cc2)[C@@H](C)CN1C(=O)c1cc2c(C(=O)C(=O)N(C)C)cn(C)c2cc1Cl` [TALMAPIMOD], the Kd in experiment [1], in experiment [2], in [3], in [4], in experiment [5] and in experiment [6] was > 30 µM (inactive) each time. The Kd in experiment [7], in [8], in experiment [9], in [10], in experiment [11] and in experiment [12] was > 30 µM (inactive) in each case.

Regarding `O=C(Nc1ccc(-c2ccnc(Nc3ccc(N4CCOCC4)cc3)n2)cc1)C1CCCN1` (stereo not given) [XL-019], the Kd in experiment [1], in experiment [2], in [3], in [4], in [5] and in experiment [6] was > 30 µM (inactive) throughout. The Kd in [7], in [8], in experiment [9], in experiment [10], in [11] and in [12] was > 30 µM (inactive) in each case.

For `CN1CCC(COc2cnc(-c3cccc(Cn4nc(-c5cccc(C#N)c5)ccc4=O)c3)nc2)CC1` [TEPOTINIB], the Kd in [1], in experiment [2], in [3], in experiment [4], in [5] and in [6] was > 30 µM (inactive) each time. The Kd in [7], in experiment [8], in experiment [9], in [10], in experiment [11] and in [12] was > 30 µM (inactive) throughout.

Turning to `CCn1c(=O)c(-c2cc[nH]n2)cc2c(C)nc(N)nc21` [VOXTALISIB], the Kd in [1], in experiment [2], in experiment [3], in experiment [4], in experiment [5] and in experiment [6] was > 30 µM (inactive) throughout. In addition, the Kd in experiment [7], in experiment [8], in experiment [9], in experiment [10], in experiment [11] and in experiment [12] was > 30 µM (inactive) throughout.

Regarding `Cc1cc2c(F)c(Oc3ncnn4cc(OC[C@@H](C)OC(=O)[C@H](C)N)c(C)c34)ccc2[nH]1` [BRIVANIB ALANINATE], the Kd in [1], in [2], in [3], in experiment [4], in experiment [5] and in experiment [6] was > 30 µM (inactive) each time. Moreover, the Kd in experiment [7] is > 30 µM (inactive); in [8] it was > 30 µM (inactive); in experiment [9] it was > 30 µM (inactive); in [10] it was 9.49 µM (active); in [11], > 30 µM (inactive); in experiment [12], > 30 µM (inactive).

For `CNC(=O)c1ccc(C)c(-n2c(C)cc(OCc3ccc(F)cc3F)c(Br)c2=O)c1` [PH-797804], the Kd in experiment [1] was > 30 µM (inactive); in experiment [2], > 30 µM (inactive); in experiment [3] it was 0.672 µM; in experiment [4] it was > 30 µM (inactive); in [5] it was > 30 µM (inactive); in experiment [6], > 30 µM (inactive). Also, the Kd in [7], in experiment [8], in experiment [9], in experiment [10], in [11] and in experiment [12] was > 30 µM (inactive) each time.

In the case of `COC(=O)N[C@@H](C)CNc1nccc(-c2cn(C(C)C)nc2-c2cc(Cl)cc(NS(C)(=O)=O)c2F)n1` [ENCORAFENIB], the Kd in experiment [1] was > 30 µM (inactive); in [2], > 30 µM (inactive); in experiment [3] it was > 30 µM (inactive); in experiment [4] it was > 30 µM (inactive); in experiment [5] it was > 30 µM (inactive); in experiment [6] it was 3.33 µM (active). In addition, the Kd in experiment [7], in [8], in experiment [9], in experiment [10], in [11] and in experiment [12] was > 30 µM (inactive) in each case.

Take `Cc1cc(-c2cc(O)ccc2Cl)cc2nnc(Nc3ccc(OCCN4CCCC4)cc3)nc12`: the Kd in experiment [1], in experiment [2], in experiment [3], in experiment [4], in experiment [5] and in experiment [6] was > 30 µM (inactive) throughout. In addition, the Kd in [7] is > 30 µM (inactive); in experiment [8], 0.001 µM (active); in experiment [9], > 30 µM (inactive); in experiment [10], > 30 µM (inactive); in [11], > 30 µM (inactive); in [12], > 30 µM (inactive).

With `O=C1NC(=O)/C(=C/c2ccc3nccc(-c4ccncc4)c3c2)S1` [GSK-1059615], the Kd in [1], in experiment [2], in experiment [3], in experiment [4], in [5] and in [6] was > 30 µM (inactive) each time. The Kd is > 30 µM (inactive) in [7]; > 30 µM (inactive) in [8]; > 30 µM (inactive) in experiment [9]; 4.32 µM (active) in [10]; 0.058 µM (active) in experiment [11]; > 30 µM (inactive) in [12].

With `CC[C@@H]1C(=O)N(C)c2cnc(Nc3ccc(C(=O)N[C@H]4CC[C@H](N5CCN(CC6CC6)CC5)CC4)cc3OC)nc2N1C(C)C` [VOLASERTIB], the Kd in experiment [1], in experiment [2], in experiment [3], in experiment [4], in [5] and in experiment [6] was > 30 µM (inactive) throughout. Besides, the Kd in experiment [7], in experiment [8], in [9], in experiment [10], in experiment [11] and in experiment [12] was > 30 µM (inactive) throughout.
